Tests used:
Type in all cases: biochemical
[1] = target: GuaB^Sa (Staphylococcus aureus, UniProt Q2FJM6); assay: NADH production, NAD(P)H-Glo luminescence
Excerpt: NADH production, NAD(P)H-Glo luminescence on GuaB^Sa

[2] = target: T1, GuaB^Ab (Acinetobacter baumannii, UniProt D0CF46); assay: NADH production, NAD(P)H-Glo luminescence
T1 construct: recombinant A. baumannii GuaB
T1 sequence (D0CF46 1-488): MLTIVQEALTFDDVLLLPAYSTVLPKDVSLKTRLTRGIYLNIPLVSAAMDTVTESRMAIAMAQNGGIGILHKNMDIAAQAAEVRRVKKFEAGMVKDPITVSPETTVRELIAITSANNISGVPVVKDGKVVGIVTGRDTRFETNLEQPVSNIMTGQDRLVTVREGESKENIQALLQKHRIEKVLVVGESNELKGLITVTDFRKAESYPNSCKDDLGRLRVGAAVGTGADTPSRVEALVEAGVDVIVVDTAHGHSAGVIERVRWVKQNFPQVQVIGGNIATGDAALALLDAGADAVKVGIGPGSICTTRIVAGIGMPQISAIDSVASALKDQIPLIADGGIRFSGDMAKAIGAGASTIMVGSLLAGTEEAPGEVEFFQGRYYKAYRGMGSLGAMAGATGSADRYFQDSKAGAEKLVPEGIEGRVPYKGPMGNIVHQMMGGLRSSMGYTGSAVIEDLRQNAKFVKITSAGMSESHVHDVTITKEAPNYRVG
Excerpt: NADH production, NAD(P)H-Glo luminescence on GuaB^Ab

[3] = target: T2, GuaB^Ec (Escherichia coli, UniProt P0ADG7); assay: NADH production, absorbance at […] nm
T2 sequence (P0ADG7 1-488): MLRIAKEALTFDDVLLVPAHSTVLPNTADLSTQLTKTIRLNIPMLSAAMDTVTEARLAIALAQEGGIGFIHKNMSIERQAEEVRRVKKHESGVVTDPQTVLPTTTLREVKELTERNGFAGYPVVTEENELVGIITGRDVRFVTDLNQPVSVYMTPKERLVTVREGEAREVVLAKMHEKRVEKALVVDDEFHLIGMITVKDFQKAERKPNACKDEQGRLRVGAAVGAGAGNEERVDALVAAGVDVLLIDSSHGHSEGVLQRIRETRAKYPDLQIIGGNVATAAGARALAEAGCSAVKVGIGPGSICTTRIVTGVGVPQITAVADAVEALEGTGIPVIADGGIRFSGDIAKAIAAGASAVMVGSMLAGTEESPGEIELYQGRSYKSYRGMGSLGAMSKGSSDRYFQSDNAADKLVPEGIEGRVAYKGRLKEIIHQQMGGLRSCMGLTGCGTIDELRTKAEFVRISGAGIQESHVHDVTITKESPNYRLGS

[4] = target: T3, hIMPDH2 (Homo sapiens, UniProt P12268); assay: enzyme inhibition, method not given
T3 construct: gene IMPDH2; not described in the main text
T3 sequence (P12268 2-514): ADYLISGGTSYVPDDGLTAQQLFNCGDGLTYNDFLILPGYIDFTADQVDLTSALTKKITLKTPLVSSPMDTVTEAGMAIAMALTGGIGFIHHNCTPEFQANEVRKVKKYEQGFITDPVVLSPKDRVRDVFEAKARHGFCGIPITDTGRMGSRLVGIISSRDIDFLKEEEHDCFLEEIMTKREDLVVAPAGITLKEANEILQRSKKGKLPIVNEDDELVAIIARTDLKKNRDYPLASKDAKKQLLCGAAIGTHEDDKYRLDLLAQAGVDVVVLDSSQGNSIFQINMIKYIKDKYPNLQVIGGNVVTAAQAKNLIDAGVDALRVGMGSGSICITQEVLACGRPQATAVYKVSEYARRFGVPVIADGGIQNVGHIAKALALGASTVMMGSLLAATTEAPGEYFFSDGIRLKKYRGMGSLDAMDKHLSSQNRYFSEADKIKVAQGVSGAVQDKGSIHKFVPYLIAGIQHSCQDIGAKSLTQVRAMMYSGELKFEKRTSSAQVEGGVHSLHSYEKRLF
Excerpt: enzyme inhibition, method not described in main text on hIMPDH2

Sequence of GuaB^Sa (Q2FJM6 whole entry): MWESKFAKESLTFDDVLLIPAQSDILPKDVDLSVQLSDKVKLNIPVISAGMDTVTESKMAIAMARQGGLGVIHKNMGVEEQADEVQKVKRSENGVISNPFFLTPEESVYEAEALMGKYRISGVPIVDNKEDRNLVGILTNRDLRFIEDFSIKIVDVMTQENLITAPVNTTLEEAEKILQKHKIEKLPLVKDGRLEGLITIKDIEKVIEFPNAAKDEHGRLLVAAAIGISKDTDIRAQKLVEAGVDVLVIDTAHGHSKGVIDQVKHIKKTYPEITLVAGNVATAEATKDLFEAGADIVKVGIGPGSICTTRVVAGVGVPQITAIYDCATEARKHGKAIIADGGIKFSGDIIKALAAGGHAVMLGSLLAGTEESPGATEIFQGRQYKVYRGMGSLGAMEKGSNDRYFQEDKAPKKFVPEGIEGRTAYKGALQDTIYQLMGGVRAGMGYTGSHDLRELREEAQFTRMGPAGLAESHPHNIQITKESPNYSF

| Compound | IC50 [1] [nM] | IC50 [2] [nM] | IC50 [3] [nM] | IC50 [4] [nM] |
| --- | --- | --- | --- | --- |
| C[C@H](Nc1ccc(-n2cccn2)cc1)C(=O)Nc1ccc2sc(-c3ccncc3)nc2c1 [G5] | 0.511 | 0.394 | 569 | > 50000 |
| C[C@H](Nc1ccc2ncc(CO)cc2c1)C(=O)Nc1ccc(Cl)c(N2CCOCC2)c1 [G6] | 0.801 | 0.564 | 5.9 | > 50000 |
| C[C@H](Nc1ccc(-n2cncn2)cc1)C(=O)Nc1ccc2sc(-c3cc[n+]([O-])cc3)nc2c1 [G4] | 0.62 | 0.617 | 903 | > 50000 |
| C[C@H](Nc1ccc2ncc(CO)cc2c1)C(=O)Nc1ccc(Br)nc1 [G3] | 2.45 | 0.975 | 91 | > 50000 |
| C[C@H](Nc1ccc2ncc(CO)cc2c1)C(=O)Nc1ccc(Cl)c(N(C)C)c1 [G2] | 3.5 | 0.666 | 15.8 | > 50000 |

Reference: PMC11500612, “Differential effects of inosine monophosphate dehydrogenase (IMPDH/GuaB) inhibition in Acinetobacter baumannii and Escherichia coli” (Journal of Bacteriology, 2024)
